Values of other authors as cited in patent publication US9631212B2, “Gene cluster for biosynthesis of cornexistin and hydroxycornexistin” (BASF SE, priority 2012, dated 2017).
Where two headings read alike, the source gives them in different places.

Assays:
[1] = in vivo

Row | Structure (SMILES) | activity as a herbicide [1] | activity as a herbicide ([1]; listed as Cornexistin) | activity towards corn plants (corn plants) | activity towards corn plants (corn plants; listed as Cornexistin)
1 | C/C=C1/CC2=C(C(=O)OC2=O)[C@H](CCC)[C@H](O)C(=O)C[C@@H]1O [cornexistin] | highly potent herbicides | good activity as a herbicide | harmless to corn plants | relative inactivity towards corn plants
2 | CCC[C@H]1C2=C(C/C(=C/CO)[C@@H](O)CC(=O)[C@H]1O)C(=O)OC2=O [hydroxycornexistin] | highly potent herbicides | – | harmless to corn plants | –
